Experimental data from PMC10507085, “Pharmacological inhibition of TBK1/IKKε blunts immunopathology in a murine model of SARS-CoV-2 infection” (Nature Communications, 2023).

Experiments:
Test in all cases: biochemical
Design in all cases: KINOMEscan competition binding, DNA-tagged kinase against immobilised ligand, qPCR read-out
Conditions in all cases: read-out: Percent Control
BRSK2 = BRSK2 (Homo sapiens, UniProt Q8IWQ3)
CAMK2D = CAMK2D (Homo sapiens, UniProt Q13557)
CASK = CASK (Homo sapiens, UniProt O14936)
CDC42BPA = CDC42BPA (Homo sapiens, UniProt Q5VT25)
CSNK1G2 = CSNK1G2 (Homo sapiens, UniProt P78368)
CSNK2A2 = CSNK2A2 (Homo sapiens, UniProt P19784)
FGFR2 = FGFR2 (Homo sapiens, UniProt P21802)
GSG2 = molecular target: T1, GSG2 (Homo sapiens, UniProt Q8TF76)
T1 construct: gene HASPIN

LRRK2 = LRRK2 (Homo sapiens, UniProt Q5S007)
MAP2K2 = MAP2K2 (Homo sapiens, UniProt P36507)
MAP3K4 = MAP3K4 (Homo sapiens, UniProt Q9Y6R4)
MTOR = MTOR (Homo sapiens, UniProt P42345)
MYLK3 = MYLK3 (Homo sapiens, UniProt Q32MK0)
NEK11 = NEK11 (Homo sapiens, UniProt Q8NG66)
PI4KB = PI4KB (Homo sapiens, UniProt Q9UBF8)
PIP4K2C = PIP4K2C (Homo sapiens, UniProt Q8TBX8)
PKN1 = PKN1 (Homo sapiens, UniProt Q16512)
PRKD1 = PRKD1 (Homo sapiens, UniProt Q15139)
TESK1 = TESK1 (Homo sapiens, UniProt Q15569)
TRPM6 = TRPM6 (Homo sapiens, UniProt Q9BX84)

MYLK3, sequence (Q32MK0 whole entry): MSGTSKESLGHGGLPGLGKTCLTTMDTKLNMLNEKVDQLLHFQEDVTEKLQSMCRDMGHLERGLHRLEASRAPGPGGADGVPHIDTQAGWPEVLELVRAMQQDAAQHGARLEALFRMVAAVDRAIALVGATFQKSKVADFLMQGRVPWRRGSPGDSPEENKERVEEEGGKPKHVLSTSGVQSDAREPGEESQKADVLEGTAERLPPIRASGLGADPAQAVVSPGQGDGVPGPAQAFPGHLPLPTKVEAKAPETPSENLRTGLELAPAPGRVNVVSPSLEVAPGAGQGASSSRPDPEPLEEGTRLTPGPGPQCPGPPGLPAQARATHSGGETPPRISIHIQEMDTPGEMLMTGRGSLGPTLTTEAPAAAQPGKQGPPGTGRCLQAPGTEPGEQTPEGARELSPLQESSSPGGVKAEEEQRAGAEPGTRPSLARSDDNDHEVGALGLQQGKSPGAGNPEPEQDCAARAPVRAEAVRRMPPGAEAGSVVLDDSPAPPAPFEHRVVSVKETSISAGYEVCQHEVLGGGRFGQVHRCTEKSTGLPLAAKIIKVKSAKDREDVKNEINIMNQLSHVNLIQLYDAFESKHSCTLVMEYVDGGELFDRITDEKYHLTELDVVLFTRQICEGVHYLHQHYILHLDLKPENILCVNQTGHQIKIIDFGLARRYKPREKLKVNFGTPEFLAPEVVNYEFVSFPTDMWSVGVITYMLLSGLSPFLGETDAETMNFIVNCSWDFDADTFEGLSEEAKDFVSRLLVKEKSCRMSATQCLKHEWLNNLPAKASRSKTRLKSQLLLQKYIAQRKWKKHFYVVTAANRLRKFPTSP
PKN1, sequence (Q16512 whole entry): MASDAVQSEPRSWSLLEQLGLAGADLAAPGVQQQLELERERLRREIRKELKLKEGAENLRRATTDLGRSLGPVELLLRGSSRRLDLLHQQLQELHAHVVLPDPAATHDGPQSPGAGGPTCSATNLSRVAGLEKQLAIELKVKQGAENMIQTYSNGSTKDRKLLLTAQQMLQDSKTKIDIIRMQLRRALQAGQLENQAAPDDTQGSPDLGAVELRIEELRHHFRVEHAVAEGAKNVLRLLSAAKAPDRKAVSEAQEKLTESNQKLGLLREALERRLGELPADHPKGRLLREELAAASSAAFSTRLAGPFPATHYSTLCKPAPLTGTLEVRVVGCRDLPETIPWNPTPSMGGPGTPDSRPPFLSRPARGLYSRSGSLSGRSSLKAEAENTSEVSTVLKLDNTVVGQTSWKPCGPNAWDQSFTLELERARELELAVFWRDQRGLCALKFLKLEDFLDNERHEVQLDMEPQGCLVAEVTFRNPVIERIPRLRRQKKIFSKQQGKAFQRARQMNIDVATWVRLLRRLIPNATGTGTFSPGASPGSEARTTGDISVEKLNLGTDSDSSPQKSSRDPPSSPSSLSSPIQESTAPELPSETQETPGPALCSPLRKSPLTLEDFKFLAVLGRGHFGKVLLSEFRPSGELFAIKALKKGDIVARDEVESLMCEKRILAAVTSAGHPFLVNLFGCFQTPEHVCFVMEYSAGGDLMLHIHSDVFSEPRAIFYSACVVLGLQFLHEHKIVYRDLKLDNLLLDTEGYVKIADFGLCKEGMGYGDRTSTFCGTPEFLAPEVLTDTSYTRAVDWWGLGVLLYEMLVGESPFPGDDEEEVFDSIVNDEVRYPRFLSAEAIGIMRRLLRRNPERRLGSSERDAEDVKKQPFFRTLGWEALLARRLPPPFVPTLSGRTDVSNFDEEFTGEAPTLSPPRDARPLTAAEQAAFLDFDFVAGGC
CSNK1G2, sequence (P78368 whole entry): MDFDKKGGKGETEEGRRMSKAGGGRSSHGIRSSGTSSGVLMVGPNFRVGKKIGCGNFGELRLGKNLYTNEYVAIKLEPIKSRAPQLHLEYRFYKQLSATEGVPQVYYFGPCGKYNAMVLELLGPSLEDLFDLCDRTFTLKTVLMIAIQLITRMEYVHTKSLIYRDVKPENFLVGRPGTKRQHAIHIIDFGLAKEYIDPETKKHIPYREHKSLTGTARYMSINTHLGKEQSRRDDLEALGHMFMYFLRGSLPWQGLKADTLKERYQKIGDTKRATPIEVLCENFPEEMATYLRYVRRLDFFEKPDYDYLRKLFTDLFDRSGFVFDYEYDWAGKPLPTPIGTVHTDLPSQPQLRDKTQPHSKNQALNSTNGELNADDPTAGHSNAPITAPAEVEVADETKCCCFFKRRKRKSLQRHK
MAP3K4, sequence (Q9Y6R4 whole entry): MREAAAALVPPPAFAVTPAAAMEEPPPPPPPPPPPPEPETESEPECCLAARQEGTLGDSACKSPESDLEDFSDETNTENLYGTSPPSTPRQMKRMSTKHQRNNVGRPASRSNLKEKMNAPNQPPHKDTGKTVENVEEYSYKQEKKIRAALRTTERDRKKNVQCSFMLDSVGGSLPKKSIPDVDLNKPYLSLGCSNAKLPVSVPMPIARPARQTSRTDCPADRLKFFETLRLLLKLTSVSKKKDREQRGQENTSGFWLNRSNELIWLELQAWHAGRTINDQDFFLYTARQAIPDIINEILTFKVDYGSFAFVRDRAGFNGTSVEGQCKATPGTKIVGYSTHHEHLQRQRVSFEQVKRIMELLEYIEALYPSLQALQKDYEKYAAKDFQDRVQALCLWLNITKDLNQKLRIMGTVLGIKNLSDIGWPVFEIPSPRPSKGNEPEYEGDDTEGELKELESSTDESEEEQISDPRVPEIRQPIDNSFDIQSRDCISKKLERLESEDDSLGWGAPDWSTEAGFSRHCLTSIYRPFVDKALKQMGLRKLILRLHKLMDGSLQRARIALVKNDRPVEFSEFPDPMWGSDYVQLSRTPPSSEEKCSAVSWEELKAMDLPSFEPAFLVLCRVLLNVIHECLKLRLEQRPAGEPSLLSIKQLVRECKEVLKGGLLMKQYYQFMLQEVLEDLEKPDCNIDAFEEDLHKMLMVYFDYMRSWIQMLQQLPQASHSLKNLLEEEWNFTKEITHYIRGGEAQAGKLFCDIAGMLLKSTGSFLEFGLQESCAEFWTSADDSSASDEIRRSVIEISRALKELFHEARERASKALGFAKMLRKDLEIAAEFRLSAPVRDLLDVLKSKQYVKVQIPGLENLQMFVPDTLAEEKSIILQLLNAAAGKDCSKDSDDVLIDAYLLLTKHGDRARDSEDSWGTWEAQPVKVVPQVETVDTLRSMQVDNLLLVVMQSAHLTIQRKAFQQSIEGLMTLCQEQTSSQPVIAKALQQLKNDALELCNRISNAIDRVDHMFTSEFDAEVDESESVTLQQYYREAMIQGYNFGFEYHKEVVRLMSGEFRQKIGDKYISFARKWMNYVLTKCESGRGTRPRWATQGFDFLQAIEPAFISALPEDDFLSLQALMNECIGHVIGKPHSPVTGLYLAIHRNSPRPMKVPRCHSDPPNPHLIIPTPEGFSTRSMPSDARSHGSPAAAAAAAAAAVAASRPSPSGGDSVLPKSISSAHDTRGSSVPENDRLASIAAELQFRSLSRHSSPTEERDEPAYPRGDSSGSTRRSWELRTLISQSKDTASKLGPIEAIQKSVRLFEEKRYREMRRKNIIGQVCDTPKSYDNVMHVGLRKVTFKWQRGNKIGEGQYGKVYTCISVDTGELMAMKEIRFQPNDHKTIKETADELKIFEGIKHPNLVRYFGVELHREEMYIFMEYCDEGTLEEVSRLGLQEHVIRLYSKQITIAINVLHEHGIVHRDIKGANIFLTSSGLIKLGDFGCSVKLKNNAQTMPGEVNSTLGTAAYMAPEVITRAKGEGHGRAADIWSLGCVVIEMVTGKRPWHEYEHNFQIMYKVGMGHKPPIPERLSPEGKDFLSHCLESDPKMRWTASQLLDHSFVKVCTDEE
NEK11, sequence (Q8NG66 whole entry): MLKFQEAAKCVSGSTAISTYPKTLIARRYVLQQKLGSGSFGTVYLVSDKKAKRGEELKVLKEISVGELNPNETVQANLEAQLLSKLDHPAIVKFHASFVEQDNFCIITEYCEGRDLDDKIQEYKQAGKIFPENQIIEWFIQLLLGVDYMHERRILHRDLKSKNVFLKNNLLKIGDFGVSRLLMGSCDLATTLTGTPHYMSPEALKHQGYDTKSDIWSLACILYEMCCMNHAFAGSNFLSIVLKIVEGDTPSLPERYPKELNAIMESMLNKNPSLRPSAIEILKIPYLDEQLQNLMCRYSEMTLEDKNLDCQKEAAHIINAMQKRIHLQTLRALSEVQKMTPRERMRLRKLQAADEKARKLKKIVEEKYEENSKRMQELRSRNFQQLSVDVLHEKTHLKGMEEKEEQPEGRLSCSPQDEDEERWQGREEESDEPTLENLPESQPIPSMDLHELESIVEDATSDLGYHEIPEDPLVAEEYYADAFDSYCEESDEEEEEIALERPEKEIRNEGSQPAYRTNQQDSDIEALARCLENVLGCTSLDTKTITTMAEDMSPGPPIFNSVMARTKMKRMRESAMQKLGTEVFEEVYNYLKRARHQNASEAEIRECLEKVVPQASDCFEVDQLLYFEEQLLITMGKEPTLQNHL
CSNK2A2, sequence (P19784 whole entry): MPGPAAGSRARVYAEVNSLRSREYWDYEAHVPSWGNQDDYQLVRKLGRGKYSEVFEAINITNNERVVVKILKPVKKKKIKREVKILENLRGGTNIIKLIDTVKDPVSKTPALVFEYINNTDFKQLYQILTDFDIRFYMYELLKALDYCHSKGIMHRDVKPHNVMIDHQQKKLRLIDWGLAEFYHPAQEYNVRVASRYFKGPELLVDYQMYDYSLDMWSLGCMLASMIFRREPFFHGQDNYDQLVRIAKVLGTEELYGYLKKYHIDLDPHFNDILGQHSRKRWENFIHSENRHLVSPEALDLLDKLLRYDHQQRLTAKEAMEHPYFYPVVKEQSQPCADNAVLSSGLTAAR

Compound `Oc1ccc(C2=Cc3ccc(O)cc3OC2)cc1` [compound 1, idronoxil] has a remaining binding at 10 µM (BRSK2) of 84%, a remaining binding at 10 µM (CAMK2D) of 84% and a remaining binding at 10 µM (CASK) of 65%. It also gave a remaining binding at 10 µM (CDC42BPA) of 98%, a remaining binding at 10 µM (CSNK1G2) of 82% and a remaining binding at 10 µM (CSNK2A2) of 35%. It also gave a remaining binding at 10 µM (FGFR2) of 80%, a remaining binding at 10 µM (GSG2) of 5.3% and a remaining binding at 10 µM (LRRK2) of 90%. It also gave a remaining binding at 10 µM (MAP2K2) of 79%, a remaining binding at 10 µM (MAP3K4) of 76% and a remaining binding at 10 µM (MTOR) of 73%. It also gave a remaining binding at 10 µM (MYLK3) of 66%, a remaining binding at 10 µM (NEK11) of 61% and a remaining binding at 10 µM (PI4KB) of 63%. The remaining binding at 10 µM (PIP4K2C) was 52%, the remaining binding at 10 µM (PKN1) was 66% and the remaining binding at 10 µM (PRKD1) was 96%. For the same compound, the remaining binding at 10 µM (TESK1) was 86% and the remaining binding at 10 µM (TRPM6) was 88%.
